According to PubChem BioAssay AID248 (DTP/NCI, 2004):
Several values for one entry are separate records, joined by “and”; a condition that tells them apart may be missing. Equal entries are not always repeated. Inconclusive results and toxic doses are left out. No stated cut-off is given here; in the data, active means T/C of 150% or more; inactive means T/C below 125%.

System: L1210 leukemia ip in BDF1 mice, survival T/C
Assay: NCI In Vivo Anticancer Drug Screen. Data for tumor model L1210 Leukemia (intraperitoneal) in B6D2F1 (BDF1) mice
Conditions: endpoint: mean survival time, higher = longer survival
In short: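 Ratio derived from survival: compound-dosed mice over vehicle-dosed mice, all bearing a transplantable tumor.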

[1] = dose: 100.0 mg/kg/injection, schedule: Q01DX001 (ip), vehicle: carboxymethylcellulose (CMC)
[2] = dose: 200.0 mg/kg/injection, schedule: Q01DX001 (ip), vehicle: carboxymethylcellulose (CMC)
[3] = dose: 400.0 mg/kg/injection, schedule: Q01DX001 (ip), vehicle: carboxymethylcellulose (CMC)
[4] = dose: 75.0 mg/kg/injection, schedule: Q01DX001 (ip), vehicle: carboxymethylcellulose (CMC)
[5] = dose: 150.0 mg/kg/injection, schedule: Q01DX001 (ip), vehicle: carboxymethylcellulose (CMC)
[6] = dose: 300.0 mg/kg/injection, schedule: Q01DX001 (ip), vehicle: carboxymethylcellulose (CMC)
[7] = dose: 100.0 mg/kg/injection, schedule: Q04DX002 (ip), vehicle: Klucel (hydroxypropylcellulose) (HPC)
[8] = dose: 200.0 mg/kg/injection, schedule: Q04DX002 (ip), vehicle: Klucel (hydroxypropylcellulose) (HPC)
[9] = dose: 400.0 mg/kg/injection, schedule: Q04DX002 (ip), vehicle: Klucel (hydroxypropylcellulose) (HPC)
[10] = dose: 100.0 mg/kg/injection, schedule: Q01DX001 (ip), vehicle: saline
[11] = dose: 200.0 mg/kg/injection, schedule: Q01DX001 (ip), vehicle: saline
[12] = dose: 100.0 mg/kg/injection, schedule: Q04DX003 (ip), vehicle: saline
[13] = dose: 100.0 mg/kg/injection, schedule: Q04DX003 (ip), vehicle: Klucel (hydroxypropylcellulose) (HPC)
[14] = dose: 200.0 mg/kg/injection, schedule: Q04DX003 (ip), vehicle: Klucel (hydroxypropylcellulose) (HPC)
[15] = dose: 400.0 mg/kg/injection, schedule: Q04DX003 (ip), vehicle: Klucel (hydroxypropylcellulose) (HPC)
[16] = dose: 100.0 mg/kg/injection, schedule: Q01DX009 (ip), vehicle: saline with Tween-80
[17] = dose: 200.0 mg/kg/injection, schedule: Q01DX009 (ip), vehicle: saline with Tween-80
[18] = dose: 400.0 mg/kg/injection, schedule: Q01DX009 (ip), vehicle: saline with Tween-80
[19] = dose: 50.0 mg/kg/injection, schedule: Q01DX009 (ip), vehicle: saline with Tween-80
[20] = dose: 100.0 mg/kg/injection, schedule: Q04DX003 (ip), vehicle: saline with Tween-80
[21] = dose: 200.0 mg/kg/injection, schedule: Q04DX003 (ip), vehicle: saline with Tween-80
[22] = dose: 100.0 mg/kg/injection, schedule: Q01DX009 (ip), vehicle: Klucel (hydroxypropylcellulose) (HPC)
[23] = dose: 200.0 mg/kg/injection, schedule: Q01DX009 (ip), vehicle: Klucel (hydroxypropylcellulose) (HPC)

Measured: T/C

CC(=O)Nc1ccc(S(=O)(=O)NN)cc1
inactive: dose: 50.0 mg/kg/injection, schedule: Q01DX001 (ip), vehicle: carboxymethylcellulose (CMC) 106 % of control | [1] 103 % of control | [2] 92 % of control | [3] 92 % of control

COc1ccc2nc(/N=C(/N)N=C(N)N)sc2c1
inactive: [4] 100 % of control | [5] 97 % of control | [6] 103 % of control

CCN(C)C(=O)Nc1cccc([N+](=O)[O-])c1
inactive: [7] 101 % of control | [8] 93 % of control | [9] 93 % of control

O=C1NC2(c3ccccc3)CCCCC2O1 (configuration not stated)
inactive: dose: 75.0 mg/kg/injection, schedule: Q01DX001 (ip), vehicle: acetone 98 % of control and 92 % of control | dose: 150.0 mg/kg/injection, schedule: Q01DX001 (ip), vehicle: acetone 102 % of control | dose: 300.0 mg/kg/injection, schedule: Q01DX001 (ip), vehicle: acetone 100 % of control and 89 % of control

NC(=O)OCC(O)COc1ccc(Cl)cc1 (configuration not stated)
inactive: [10] 95 % of control | [11] 97 % of control | dose: 400.0 mg/kg/injection, schedule: Q01DX001 (ip), vehicle: saline 95 % of control

c1cc(CCc2ccncc2)ccn1
inactive: dose: 25.0 mg/kg/injection, schedule: Q04DX003 (ip), vehicle: saline 99 % of control | dose: 50.0 mg/kg/injection, schedule: Q04DX003 (ip), vehicle: saline 99 % of control | [12] 109 % of control and 89 % of control

Cc1nc(N)[nH]c(=O)c1CCc1ccccc1
inactive: [13] 100 % of control | [14] 94 % of control | [15] 100 % of control

CCCCCCCCC(C)NCCOC(=O)c1ccc(N)cc1 (configuration not stated)
inactive: dose: 9.38 mg/kg/injection, schedule: Q01DX001 (ip), vehicle: other 102 % of control | dose: 18.75 mg/kg/injection, schedule: Q01DX001 (ip), vehicle: other 101 % of control | dose: 37.5 mg/kg/injection, schedule: Q01DX001 (ip), vehicle: other 98 % of control

O=[N+]([O-])c1ccc(SSc2ccc([N+](=O)[O-])cc2)cc1
inactive: [16] 95 % of control | [7] 115 % of control | [17] 87 % of control | [8] 100 % of control | [18] 94 % of control | [9] 86 % of control

Nc1cccc2c1C(=O)c1cc(Cl)c(Cl)cc1C2=O
inactive: [19] 104 % of control | [16] 97 % of control | [17] 89 % of control

O=C(CCCCCCCCC(=O)N/N=C/c1ccc(Cl)c(Cl)c1)N/N=C/c1ccc(Cl)c(Cl)c1
inactive: [19] 91 % of control | [16] 93 % of control | [20] 89 % of control | [21] 89 % of control

COc1ccc(/C=C/c2cnc3ccccc3n2)cc1OC
inactive: [22] 91 % of control | [13] 98 % of control | [23] 100 % of control | [14] 93 % of control | dose: 400.0 mg/kg/injection, schedule: Q01DX009 (ip), vehicle: Klucel (hydroxypropylcellulose) (HPC) 92 % of control | [15] 97 % of control

COc1ccc(C=Nc2cccc3ccccc23)cc1
inactive: [13] 98 % of control | [14] 96 % of control | [15] 103 % of control

Cc1ccc(C(C)CC(=O)O)cc1 (configuration not stated)
inactive: [1] 101 % of control | [2] 95 % of control | [3] 93 % of control

CC1(C)OC(=O)C2CCCCC21 (configuration not stated)
inactive: dose: 25.0 mg/kg/injection, schedule: Q01DX009 (ip), vehicle: saline 89 % of control | dose: 50.0 mg/kg/injection, schedule: Q01DX009 (ip), vehicle: saline 93 % of control | [10] 97 % of control | [11] 90 % of control

C1=C(c2ccccc2)N(CCc2ccccc2)C(c2ccccc2)=CN1Cc1ccccc1
inactive: [7] 96 % of control | [8] 103 % of control | [9] 92 % of control

Cc1cn(CCCCOC(=O)c2ccc([N+](=O)[O-])cc2)c(=O)[nH]c1=O
inactive: dose: 100.0 mg/kg/injection, schedule: Q01DX001 (ip), vehicle: Klucel (hydroxypropylcellulose) (HPC) 95 % of control | dose: 200.0 mg/kg/injection, schedule: Q01DX001 (ip), vehicle: Klucel (hydroxypropylcellulose) (HPC) 100 % of control | dose: 400.0 mg/kg/injection, schedule: Q01DX001 (ip), vehicle: Klucel (hydroxypropylcellulose) (HPC) 87 % of control

O=C(COc1ccccc1)Nc1ccc([N+](=O)[O-])cc1O
inactive: [13] 97 % of control | [14] 100 % of control | [15] 103 % of control

O=S(=O)(O)SCCNC1CCC(NCCSS(=O)(=O)O)CC1 (configuration not stated)
inactive: [12] 105 % of control | dose: 200.0 mg/kg/injection, schedule: Q04DX003 (ip), vehicle: saline 116 % of control | dose: 400.0 mg/kg/injection, schedule: Q04DX003 (ip), vehicle: saline 114 % of control

CC(C)N(C(=O)c1ccc(C(=O)N(c2ccccc2)C(C)C)cc1)c1ccccc1
inactive: [16] 92 % of control | [20] 100 % of control | [17] 90 % of control | [21] 94 % of control | [18] 86 % of control | dose: 400.0 mg/kg/injection, schedule: Q04DX003 (ip), vehicle: saline with Tween-80 87 % of control

Nn1c2ccccc2c2ccccc21
inactive: dose: 50.0 mg/kg/injection, schedule: Q01DX009 (ip), vehicle: Klucel (hydroxypropylcellulose) (HPC) 103 % of control | [4] 101 % of control | [22] 103 % of control | [5] 104 % of control | [23] 92 % of control | [6] 96 % of control

CC(C)S.[Pb]
inactive: dose: 100.0 mg/kg/injection, schedule: Q04DX002 (ip), vehicle: gum acacia 100 % of control | dose: 200.0 mg/kg/injection, schedule: Q04DX002 (ip), vehicle: gum acacia 100 % of control | dose: 400.0 mg/kg/injection, schedule: Q04DX002 (ip), vehicle: gum acacia 89 % of control

CC12CC=C3c4ccc(S)cc4CCC3C1CCC2=O (configuration not stated)
inactive: dose: 100.0 mg/kg/injection, schedule: Q01DX001 (ip), vehicle: saline with Tween-80 96 % of control | dose: 200.0 mg/kg/injection, schedule: Q01DX001 (ip), vehicle: saline with Tween-80 89 % of control | dose: 400.0 mg/kg/injection, schedule: Q01DX001 (ip), vehicle: saline with Tween-80 89 % of control

COCC(O)CCl (configuration not stated)
inactive: dose: 25.0 mg/kg/injection, schedule: Q01DX009 (ip), vehicle: saline with Tween-80 113 % of control | [19] 113 % of control | [16] 113 % of control
